The record followed here is a melting point compilation (Tetko et al.).

Turning to `O=c1c2ccccc2nc(Cl)n1-c1ccccc1`, the melting point (commonly the temperature, or range, at which the solid turns liquid) fell in the range of 127 to 129 °C.

As for `CCCCC1(c2ccc(F)cc2)NC(=O)NC1=O` (centres undefined), the melting point was 113 to 115 °C.

Take `CC(C)N1C(=O)NC(=O)C1=O`: the melting point was in the range of 92 to 96 °C.

`Sc1nnnn1-c1ccccc1` gave a melting point of 145 to 147 °C.

In turn, `O=C(O)c1cccc(OCc2ccc(F)cc2)c1` gave a melting point of 143 to 145 °C.

As to `COc1ccc(N)cc1OCc1cccnc1`, the melting point lay within 95 to 97 °C.

The molecule `CCOC(=O)c1nnc(N)s1` came in with a melting point of 197 to 199 °C.

Take `CNCC1CCN(c2ccncc2)CC1`: the melting point was in the range of 65 to 67 °C.

For `Nc1cccc(S(=O)(=O)Nc2ccc(Cl)cc2)c1`, the melting point was in the range of 127 to 129 °C.

Molecule `O=C1CC2CCCC(C1)N2Cc1ccccc1` registered a melting point of 66 to 68 °C.

`CC1(c2ccc(Br)s2)NC(=O)NC1=O` (centres undefined): the melting point lay in the range of 184 to 186 °C.

In turn, `CC(C)(CO)C(CN)c1ccccc1` (centres undefined) displayed a melting point of 116 to 118 °C.

With `COC(=O)C(=O)CC(=O)c1ccccc1OC`, the melting point was 80 to 84 °C.

`Cn1cc(Nc2cccc(N)c2)cn1` returned a melting point of 92 to 94 °C.

In turn, `O=C1C2C3CC4C2C(=O)C2C1C3C42` (centres undefined) registered a melting point of 240 to 242 °C.

Regarding `CCC(C(=O)O)n1nnc(-c2ccc(Cl)cc2)n1` (centres undefined), the melting point was in the range of 184 to 186 °C.

Molecule `CC(Cl)C(=O)N1N=C(c2ccc(Cl)cc2)CC1c1ccco1` (centres undefined) had a melting point of 141 to 143 °C.

In the case of `COc1ccc(C(=O)CSc2nc(C)n[nH]2)cc1Br`, the melting point lay within 158 to 160 °C.

`N=c1[nH]cnn1-c1ccccc1` registered a melting point of 148 to 150 °C.

As for `NCc1c[nH]nn1`, the melting point lay in the range of 211 to 213 °C.

For `NC(=O)Cn1ccc(=O)c2ccccc21`, the melting point is 294 to 296 °C.

In turn, `O=C(O)Cc1cc(Cl)c2c(c1)OCCCO2` came in with a melting point of 166 to 168 °C.

In the case of `Cc1ccc2c(C)c(CCC(=O)O)c(=O)oc2c1`, the melting point was 161 to 163 °C.

The molecule `O=C1CS/C(=C/C(=O)c2ccco2)N1` showed a melting point of 251 to 253 °C.

For `COc1ccccc1Nc1ccc([N+](=O)[O-])cc1N`, the melting point fell in the range of 149 to 151 °C.

For the molecule `Cc1ccc2[nH]c3c(c2c1)CCCC3=O`, the melting point is 185 to 187 °C.

For the molecule `CC(C)Nc1ncccc1C(=O)O`, the melting point is 169 to 171 °C.

For the molecule `CCc1nnc2cc(Cl)ncn12`, the melting point fell in the range of 108 to 110 °C.

`N#Cc1cnc2ccc(OC(F)F)cc2c1Cl`: the melting point lay within 103 to 105 °C.

Regarding `CC1=NC2(CCCC2)C(=O)N1`, the melting point was in the range of 66 to 68 °C.

`NC(=S)CO` displayed a melting point of 54 to 56 °C.

Take `O=C(O)CCCc1ccc(Cl)cc1`: the melting point was 58 to 60 °C.

As for `O=C(Cc1cccc(F)c1)c1cccc(F)c1`, the melting point was 49 to 51 °C.

As to `CC(C)(C)n1ncc2c(=O)[nH]c(Cl)nc21`, the melting point lay within 191 to 193 °C.

Consider `CC(N)C(O)c1ccc(F)cc1` (centres undefined), for which the melting point lay in the range of 87 to 89 °C.

`O=C(O)CN1c2cccc3cccc(c23)S1(=O)=O` returned a melting point of 216 to 218 °C.

`O=C(O)C1CC(=O)N(C2CCCCCC2)C1` (centres undefined): the melting point was in the range of 165 to 167 °C.

Regarding `Cc1ccc(NC(=O)C(C)Cl)cc1S(=O)(=O)N1CCOCC1` (centres undefined), the melting point was 151 to 153 °C.

`COC(=O)c1cnc[nH]1` yielded a melting point of 154 to 156 °C.

With `CN(C)C(=O)COc1ccc(C#N)cc1`, the melting point lay within 110 to 112 °C.

`N#CCc1c[nH]c2cc(Cl)ccc12` gave a melting point of 99 to 101 °C.

Regarding `NC(=S)c1cc2ccccc2oc1=O`, the melting point is 241 to 243 °C.

With `N=c1ccc2sc(N)nc2[nH]1`, the melting point was in the range of 193 to 195 °C.

With `CC(C)(C)OC(=O)N1CCCC(CC#N)C1` (centres undefined), the melting point lay in the range of 48 to 50 °C.

Molecule `Clc1ccccc1-c1ncn[nH]1` registered a melting point of 154 to 156 °C.

On to `NC(CCCO)c1ccccc1` (centres undefined), for which the melting point lay within 72 to 74 °C.

Take `CC1(c2ccsc2)NC(=O)NC1=O` (centres undefined): the melting point was in the range of 151 to 153 °C.

Take `O=C(O)c1cc(=O)[nH]c2cc(F)ccc12`: the melting point lay within 323 to 325 °C.

In turn, `CCOC(=O)c1c(C2CCCCC2)csc1N` registered a melting point of 109 to 111 °C.
